Assay results from US8697641B2, “4-amino-4-oxobutanoyl peptide cyclic analogues, inhibitors of viral replication” (Achillion Pharmaceuticals, Inc., priority 2008, dated 2014).

System: Hepatitis C replicon
Assay: HCV replicon assay (NPT ELISA readout) in Huh-7 replicon-containing cells
Type: cell-based, Hepatitis C virus
Conditions: Hepatitis C virus, 72 h; HCV replicon in Huh-7 cells, three days incubation
Procedure: Compounds claimed herein are tested for the ability to inhibit viral replication of the Hepatitis C replicon in cultured cells in which the HCV replicon construct has been incorporated. The HCV replicon system was described by Bartenschlager, et. al (Science, 285, pp. 110-113 (1999)). The replicon system is predictive of in vivo anti-HCV activity; compounds that are active in humans uniformly evidence activity in the replicon assay.
In this assay HCV replicon containing cells are treated with different concentrations of the test compound to ascertain the ability of the test compound to suppress replication of the HCV replicon. As a positive control, HCV replicon-containing cells are treated with different concentrations of interferon alpha, a known inhibitor of HCV replication. The replicon assay system includes Neomycin Phosphotransferase (NPT) as a component of the replicon itself in order to detect the transcription of replicon gene products in the host cell. Cells in which the HCV replicon is actively replicating have high levels of NPT; the level of NPT is proportional to HCV replication. […] The NPT level of each sample is measured using a captured ELISA.
A protocol for testing compounds for the ability to inhibit viral replication of the Hepatitis C replicon cultured cells in which the replicon construct has been incorporated, follows.
The HCV replicon contains, 5′-3′, the HCV-IRES, the neomycin phosphotransferase (neo) gene, the IRES of encephalomyocarditis virus, which directs translation of HCV sequences NS3 to NS5B, and the 3′-NTR. The sequence of the HCV replicon has been deposited in GenBank (Accession no. AJ242652).
The replicon is transfected into Huh-7 cells using standard methods such as electroporation.
The equipment and materials include, but are not limited to, Huh-7 HCV replicon-containing cells, maintenance media (DMEM (Dulbecco's modified Eagle media) supplemented with 10% FBS, L-glutamine, non-essential amino acids, penicillin (100 units/ml), streptomycin (100 micrograms/ml), and 500 micrograms/ml of Geneticin (G418), screening media (DMEM supplemented with 10% FBS, L-glutamine, non-essential amino acids, penicillin (100 units/ml) and streptomycin (100 micrograms/ml)), 96 well tissue culture plates (flat bottom), 96 well plates (U bottom for drug dilution), Interferon alpha for positive control, fixation reagent (such as methanol:acetone), primary antibody (rabbit anti-NPTII), secondary antibody: Eu-N1 l, and enhancement solution.
The cells are then seeded onto 96-well plates at a density of 6000-7500 cells/100 microliters/well (6-7.5×10^5 cells/10 ml/plate). The plates are then incubated at 37° C. in a 5% CO2 incubator.
HCV replicon-containing cells are rinsed with once PBS once; 2 mls of trypsin are then added. Cells are incubated at 37° C. in a 5% CO2 incubator for 3-5 minutes. 10 mls of complete medium is added to stop the reaction. Cells are blown gently, put into a 15 ml tube, and spun at 1200 rpm for four minutes. The trypsin/medium solution is removed and 5 mls of medium (500 ml DMEM (high glucose)) from BRL catalog #12430-054; 50 mls 10% FBS, 5% Geneticin G418 (50 mg/ml, BRL catalog #10131-035), 5 ml MEM non-essential amino acids (100×BRL #11140-050) and 5 ml pen-strep (BRL #15140-148) is added. The cells and media are mixed carefully
Cells are plated with screening medium (500 ml DMEM (BRL #21063-029), 50 ml FBS (BRL #10082-147) and 5 ml MEM non-essential amino acid (BRL #11140-050) at 6000-7500 fcells/100 μl/well of 96 well plate (6-7.5×10^5 cells/10 ml/plate). Plates are placed into 37° C. 5% CO2 incubator overnight.
The following morning, drugs (test compounds or interferon alpha) are diluted in 96 well U bottom plates with media or DMSO/media, depending on the final concentration chosen for screening. Generally for 6 concentrations of each test compounds ranging from 10 micromolar to 0.03 micromolar are applied. […]

Row | Compound | EC50 [µM]
1 | COc1ccc2c(O[C@@H]3C[C@H]4C(=O)N[C@]5(C(=O)NS(=O)(=O)C6CC6)C[C@H]5/C=C\CCCCC[C@H](CC(=O)N5CCCC5)C(=O)N4C3)cc(-c3ccccc3)nc2c1 [Compound 55, (2R,6R,13aS, 14aR,16aS,Z)-N-(cyclopropylsulfonyl)-2-(7-methoxy-2-phenylquinolin-4-yloxy)-5,16-dioxo-6-(2-oxo-2-(pyrrolidin-1-yl)ethyl)-1,2,3,5,6,7,8,9,10,11, 13a,14,14a,15,16,16a-hexadecahydrocyclopropa [e]pyrrolo[1,2-a][1,4] diazacyclopentadecine-14a-carboxamide] | < 1
2 | COc1ccc2c(O[C@@H]3C[C@H]4C(=O)N[C@@H](C(=O)NS(=O)(=O)C5CC5)C/C=C\CCCCC[C@H](CC(=O)N5CCCCC5)C(=O)N4C3)cc(-c3ccccc3)nc2c1 [Compound 56, (3R,12R,16R,17aS, Z)-N-(cyclopropylsulfonyl)-16-(7-methoxy-2-phenylquinolin-4-yloxy)-1,13-dioxo-12-(2-oxo-2-(piperidin-1-yl)ethyl)-2,3,4,7,8,9,10,11, 12,13,15,16,17,17a-tetradecahydro-1H-pyrrolo[1,2-a][1,4] diazacyclopentadecine-3-carboxamide] | 1 to 10
3 | COc1ccc2c(O[C@@H]3C[C@H]4C(=O)N[C@H](C(=O)NS(=O)(=O)C5CC5)C/C=C\CCCCC[C@H](CC(=O)N5CCCCC5)C(=O)N4C3)cc(-c3ccccc3)nc2c1 [Compound 57, (3S,12R,16R,17aS,Z)-N-(cyclopropylsulfonyl)-16-(7-methoxy-2-phenylquinolin-4-yloxy)-1,13-dioxo-12-(2-oxo-2-(piperidin-1-yl)ethyl)-2,3,4,7,8,9,10,11, 12,13,15,16,17,17a-tetradecahydro-1H-pyrrolo[1,2-a][1,4] diazacyclopentadecine-3-carboxamide] | 1 to 10
4 | COc1ccc2c(O[C@@H]3C[C@H]4C(=O)N[C@]5(C(=O)NS(=O)(=O)C6CC6)C[C@H]5/C=C\CCCCC[C@H](CC(=O)O)C(=O)N4C3)cc(-c3ccccc3)nc2c1 [Compound 59, 2-((2R,6R,13aS, 14aR,16aS,Z)-14a-(cyclopropylsulfonyl-carbamoyl)-2-(7-methoxy-2-phenylquinolin-4-yloxy)-5,16-dioxo-1,2,3,5,6,7,8,9,10,11, 13a,14,14a,15,16,16a-hexadecahydrocyclopropa [e]pyrrolo[1,2-a][1,4]diazacyclopentadecin-6-yl)acetic acid] | < 1
5 | COc1ccc2c(O[C@@H]3C[C@H]4C(=O)N[C@]5(C(=O)NS(=O)(=O)C6CC6)C[C@H]5/C=C\CCCCC[C@H](CC(=O)N5CCOCC5)C(=O)N4C3)cc(-c3ccccc3)nc2c1 [Compound 60, (2R,6R,13aS, 14aR,16aS,Z)-N-(cyclopropylsulfonyl)-2-(7-methoxy-2-phenylquinolin-4-yloxy)-6-(2-morpholino-2-oxoethyl)-5,16-dioxo-1,2,3,5,6,7,8,9,10,11, 13a,14,14a,15,16,16a-hexadecahydrocyclopropa [e]pyrrolo[1,2-a][1,4] diazacyclopentadecine-14a-carboxamide] | < 1
6 | COc1ccc2c(O[C@@H]3C[C@H]4C(=O)N[C@]5(C(=O)NS(=O)(=O)C6CC6)C[C@H]5/C=C\CCCCC[C@H](CC(=O)N5CCC(F)(F)CC5)C(=O)N4C3)cc(-c3ccccc3)nc2c1 [Compound 61, (2R,6R,13aS, 14aR,16aS,Z)-N-(cyclopropylsulfonyl)-6-(2-(4,4-difluoropiperidin-1-yl)-2-oxoethyl)-2-(7-methoxy-2-phenylquinolin-4-yloxy)-5,16-dioxo-1,2,3,5,6,7,8,9,10,11, 13a,14,14a,15,16,16a-hexadecahydrocyclopropa [e]pyrrolo[1,2-a][1,4] diazacyclopentadecine-14a-carboxamide] | < 1
